Reference: PMC6149849, “Cymantrenyl-Nucleobases: Synthesis, Anticancer, Antitrypanosomal and Antimicrobial Activity Studies” (Molecules : A Journal of Synthetic Chemistry and Natural …, 2017)
Where two headings read alike, the source gives them in different places.

Columns and labels:
[1] = test system: bloodstream forms of T. brucei clone 427-221a; settings: cited from earlier work
[2] = test system: human myeloid leukemia HL-60 cells; settings: cited from earlier work
[3] = test system: A549 (non-small cell lung carcinoma); test: MTT cytotoxicity assay, A549
Experimental: Anticancer activity of cymantrenes was determined using a panel of human cancer cell lines that were derived from solid tumors. These included cell lines of estrogen-responsive, doxorubicin resistant, and triple negative breast adenocarcinomas (MCF-7, MCF-7/DX, and MDA-MB-231), ovarian adenocarcinoma (SKOV-3), non-small cell lung carcinoma (A549), hepatocellular carcinoma (HepG2), and glioblastoma (U-87 MG). The inhibitory effect of cymantrene derivatives on cell proliferation and growth was determined based on survival curves and was expressed as IC50 values (concentration required to achieve a 50% decrease in cell viability when compared to the viability of untreated control cells) calculated using GraphPad Prism 4.02 software for Windows (GraphPad Software, San Diego, CA, USA). Cell viability was determined by the MTT microplate spectrophotometric cytotoxicity test.
Anticancer activity of cymantrene derivetives were determined on the basis of their cytotoxic effects on a panel of human cancer cells, as derived from different types of solid tumors: estrogen responsive breast adenocarcinoma (MCF-7), triple negative breast adenocarcinoma (MDA-MB-231), ovarian adenocarcinoma (SKOV-3), non-small cell lung carcinoma (A549), hepatocellular carcinoma (HepG2), and glioblastoma (U-87 MG). Additionally, doxorubicin resistant breast adenocarcinoma cells (MCF-7/Dox) were also included for comparison. All of the cell lines were purchased from American Type Culture Collection (ATCC, Rockville, MD, USA), except the MCF-7/dox cell line, which was a generous gift from Professor Malgorzata Latocha from the Department of Cell Biology, Medical University of Silesia in Katowice, Poland.
Cells were grown as a monolayer in DMEM growth medium, supplemented with 10% FBS, penicillin (10 U/mL) and streptomycin (50 μg/mL), under standard conditions (37 °C, 5% CO2 and 95% air, 100% humidity) and periodically checked for Mycoplasma contamination.
The cytotoxicity of cymantrene derivatives was evaluated by the MTT microplate methods as described elsewhere by incubating the cells with increasing concentrations of tested compounds for 24 h. Briefly, 0.1 mL of logarithmically growing cells were seeded in a 96-well microplate (5 × 10^4 cells/well) a day before the experiments and after 24 h of culture, tested compounds, dissolved in DMSO, and diluted in culture medium, were added. […] After further incubation for 24 h, the medium was replaced with fresh medium and the cells were allowed to grow for additional 48 h. Then, the medium was aspirated and 0.05 mL of MTT (final concentration of […] medium) added to each well, and the cells were incubated for further 4 h. The absorbance of the product, resulting from the MTT reduction, was read with a microplate reader at 545 nm. The percentage of viable cells was calculated by comparing the absorbance of treated cells with that of the untreated control cells (taken as 100%). The IC50 concentration of each compound was calculated from the cell survival curves using GraphPad Prism 4.02 software for Windows (GraphPad Software, San Diego, CA, USA).

[4] = test system: MCF-7/DX (estrogen-responsive breast adenocarcinoma resistant to doxorubicin); test: cells; type: cell-based, human
Experimental: (§6) The cytotoxicity of cymantrene derivatives was evaluated by the MTT microplate methods as described elsewhere [67] by incubating the cells with increasing concentrations of tested compounds for 24 h. Briefly, 0.1 mL of logarithmically growing cells were seeded in a 96-well microplate (5 × 10^4 cells/well) a day before the experiments and after 24 h of culture, tested compounds, dissolved in DMSO, and diluted in culture medium, were added. […] After further incubation for 24 h, the medium was replaced with fresh medium and the cells were allowed to grow for additional 48 h. Then, the medium was aspirated and 0.05 mL of MTT (final concentration of 5 mg/mL medium) added to each well, and the cells were incubated for further 4 h. The absorbance of the product, resulting from the MTT reduction, was read with a microplate reader at 545 nm. The percentage of viable cells was calculated by comparing the absorbance of treated cells with that of the untreated control cells (taken as 100%). The IC50 concentration of each compound was calculated from the cell survival curves using GraphPad Prism 4.02 software for Windows (GraphPad Software, San Diego, CA, USA).

[5] = test system: U87-MG (glioblastoma); test: MTT cytotoxicity assay, U87-MG; type: cell-based, human
Experimental: (§7) Anticancer activity of cymantrenes was determined using a panel of human cancer cell lines that were derived from solid tumors. […] The inhibitory effect of cymantrene derivatives on cell proliferation and growth was determined based on survival curves and was expressed as IC50 values (concentration required to achieve a 50% decrease in cell viability when compared to the viability of untreated control cells) calculated using GraphPad Prism 4.02 software for Windows (GraphPad Software, San Diego, CA, USA). Cell viability was determined by the MTT microplate spectrophotometric cytotoxicity test.
as §6

[6] = test system: MDA-MB-231 (triple negative breast adenocarcinoma); test: MTT cytotoxicity assay, MDA-MB-231; type: cell-based, human
Experimental: as §7, §6

[7] = test system: SKOV-3 (ovarian adenocarcinoma); test: MTT cytotoxicity assay, SKOV-3; type: cell-based, human
Experimental: as §7, §6

[8] = test system: MCF-7 (hormone-responsive breast adenocarcinoma); test: MTT cytotoxicity assay, MCF-7; type: cell-based, human
Experimental: as §7, §6

[9] = test system: HepG2 (hepatocellular carcinoma); test: MTT cytotoxicity assay, HepG2; type: cell-based, human
Experimental: as §7, §6

[10] = test system: bloodstream forms of T. brucei clone 427-221a; test: Trypanocidal assay, resazurin viability assay; type: cell-based, Trypanosoma brucei
Experimental: (§1) All of the cultures were maintained at 37 °C in a humidified atmosphere containing 5% of CO2. Toxicity assays were performed, as previously described, with some modifications. In brief, trypanosomes and HL-60 cells were seeded at an initial cell density of 10^4/mL and 5 × 10^4/mL, respectively, in 96-well plates in a final volume of 200 μL culture medium containing various concentrations of test compounds dissolved in 100% DMSO. […] The controls contained DMSO alone. In all of the experiments, the final DMSO concentration was 0.9%. After 24 h incubation, 20 µL of a 0.5 mM resazurin solution prepared in PBS was added and the cultures were incubated for a further 48 h. Resazurin is a vital dye that, when being reduced by living cells, changes its colour from blue to pink. Thus, by measuring absorbance, the proliferation of cells can be easily determined. The change in absorbance was read with a microplate reader using a test wavelength of 570 nm and a reference wavelength of 630 nm. GI50 values were calculated by linear interpolation according to the method described by Huber and Koella. MIC values were determined microscopically.

[11] = test system: human myeloid leukemia HL-60 cells; test: in vitro
Experimental: as §1

[12] = test system: S. epidermidis ATCC 12228; test: Antibacterial liquid microdilution (CLSI M07-A8); type: cell-based, Staphylococcus epidermidis; settings: 18 to 24 h
Experimental: (§2) Organometallic compounds play an increasingly important role in the search for new antibacterial agents. We, therefore, thought to investigate also the bactericidal activity of the newly synthesized cymantrenes 1–7, compound C and CymH. The antibacterial activity of the compounds was tested against Gram-positive methicillin-sensitive Staphylococcus aureus (MSSA), methicillin-resistant S. aureus (MRSA), vancomycin-intermediate S. aureus (VISA), S. epidermidis, and Gram-negative Escherichia coli bacterial strains, and expressed as minimal inhibitory concentration (MIC) values (Table 3).
(§3) The antibacterial activity of CymH, 1–7 and C and the reference drugs penicillin G and polymyxin B was tested by the liquid microdilution method under standard conditions using twofold dilution series, as described in the Clinical and Laboratory Standards Institute (CLSI), reference method M07-A8, and expressed as minimal inhibitory concentration (MIC) values. A panel of Gram-positive bacterial strains, S. aureus ATCC® 29213 (sensitive to methicillin, (MSSA)), S. aureus ATCC® 43300 (resistant to methicillin, (MRSA)), S. aureus ATCC 700787™ (intermediate to vancomycin, (VISA)), and S. epidermidis ATCC 12228™, and one Gram-negative, strain E. coli ATCC BAA-198™ (ESBL) were used. In addition, four clinical isolates of S. aureus (MSSA and MRSA) and two clinical isolates of S. epidermidis that were collected from different patients at the Medical University of Warsaw, Poland, were also tested. The bacterial cells were cultivated on tryptic soy agar (TSA) and nutrient agar (NA), according to ATCC recommendations. All of the strains were incubated at 37 °C. Tested compounds were dissolved in DMSO and then serially diluted twofold with cation-adjusted Mueller-Hinton broth (CAMHB). Then, 95 µL of the dilutions were dispensed into microdilution sterile plates (Mar-Four), followed by the addition of 5 µL of bacteria inoculum containing 5 × 10^4 CFU/mL. The final concentrations of the compounds ranged from 512 to 2 µg/mL. Each compound was tested in triplicate, and Penicillin G (8–0.15 µg/mL) and Polymyxin B (256–0.0625 µg/mL) were used as controls. The plates were incubated at 37 °C for 18 to 24 h depending on the bacterial strain. Thereafter, the absorbance was measured at λ = 540 nm and λ = 595 nm using a Spectrostar Omega microplate reader (BMG Labtech, Offenburg, Germany). The MIC value was defined as the lowest concentration of a compound that reduced the growth by 100%.

[13] = test system: SKOV-3 cells; test: Autophagy (acidic vesicular organelles, AVOs), acridine orange staining; type: cell-based, human; settings: SKOV-3, IC50 concentrations 24 h, then 0, 24 or 48 h drug-free
Experimental: (§4) To determine the mode of cell death that was triggered by cymantrene derivatives, appropriately stained SKOV-3 cells were evaluated for morphological changes using fluorescence microscopy. For evaluation of apoptosis and autophagy, cells were stained with Hoechst 33258/propidium iodide to distinguish between live, apoptotic and necrotic cells and reveal condensed chromatin and apoptotic bodies (a hallmark of apoptosis), and with acridine orange to detect the development of acidic vesicular organelles (AVOs—a hallmark of autophagy).
(§5) One day prior to the experiments, cells were seeded at the appropriate density into 35 mm diameter dishes. […] At the end of incubation, the medium was aspirated, the cell monolayer was washed twice with pre-warmed PBS, and fresh medium was added. The cells were cultured in drug-free medium for an additional 24 or 48 h to enable them to recover after the exposure to the compounds and to repair any induced damages.
The ability of tested compounds to induce autophagosome formation inside cells (the process associated with the induction of autophagy) was evaluated by microscopic examination of the morphology of cells stained with acridine orange (AO).

[14] = test system: SKOV-3 cells; test: Apoptotic/necrotic cell death, Hoechst 33258/propidium iodide staining, fluorescence microscopy; type: cell-based, human; settings: for increase of apoptotic cells compared to untreated control cells: SKOV-3, 24 h treatment with IC50 concentrations, post-treatment 24 and 48 h
Experimental: as §4, §5
Quantitative analysis of morphological changes that are associated with apoptosis, necrosis, and autophagy were assessed using a fluorescence microscope (Olympus IX70, Tokyo, Japan) at 400× magnification, as described elsewhere. At the indicated time points, cells were washed with PBS, trypsinized, and centrifuged at 1000 rpm (fixed angle rotor, 72× g) for 5 min at 37 °C. The supernatant was removed and the cell pellet (100 µL) was transferred to the Eppendorf tube, mixed with Ho33258 (2 µL, 0.13 mM) and PI (2 µL, 0.23 mM), and incubated for 5 min in the dark at room temperature. At least 300 stained cells were counted in triplicate in each of the three independent experiments. Cells were classified as live, apoptotic, or necrotic on the basis of their morphological and staining characteristics, and each fraction was related to the total cell number.

[15] = test system: E. coli ATCC BAA-198 (ESBL); test: Antibacterial liquid microdilution (CLSI M07-A8); type: cell-based, Escherichia coli; settings: 18 to 24 h
Experimental: as §2, §3

[16] = test system: S. aureus ATCC 700787 (VISA); test: Antibacterial liquid microdilution (CLSI M07-A8); type: cell-based, Staphylococcus aureus; settings: 18 to 24 h
Experimental: as §2, §3

[17] = test system: S. aureus ATCC 29213 (MSSA); test: Antibacterial liquid microdilution (CLSI M07-A8); type: cell-based, Staphylococcus aureus; settings: 18 to 24 h
Experimental: as §2, §3

[18] = test system: S. aureus ATCC 43300 (MRSA); test: Antibacterial liquid microdilution (CLSI M07-A8); type: cell-based, Staphylococcus aureus; settings: 18 to 24 h
Experimental: as §2, §3

## O=C(CCn1ccc(=O)[nH]c1=O)[C]12[CH]3[CH]4[CH]5[CH]1[Mn]4532.[C-]#[O+].[C-]#[O+].[C-]#[O+] (stereo not shown) [non-fluorinated counterpart]
[1]
  GI50: 3.6 µM
  T. brucei MIC: 100 µM
[2]
  GI50: > 100 µM
  HL-60 MIC: > 100 µM

## COc1cccc2c1C(=O)c1c(O)c3c(c(O)c1C2=O)C[C@@](O)(C(=O)CO)C[C@@H]3O[C@H]1C[C@H](N)[C@H](O)[C@H](C)O1 [DOX, doxorubicin, reference compound]
[3]; Homo sapiens, A549, 24 h, read-out: cytotoxicity IC50, A549
  IC50: 0.3 ± 0.018 µM
[4]; Homo sapiens, MCF7/DX, 24 h, read-out: cytotoxicity IC50, MCF-7/DX
  IC50: 48.5 ± 2.78 µM
[4]; MCF-7/DX vs MCF-7
  fold less effective against MCF-7/DX cells than MCF-7 cells: ~100 fold
[5]; Homo sapiens, U-87 MG, 24 h, read-out: cytotoxicity IC50, U87-MG
  IC50: 0.61 ± 0.029 µM
[6]; Homo sapiens, MDA-MB-231, 24 h, read-out: cytotoxicity IC50, MDA-MB-231
  IC50: 1.07 ± 0.062 µM
[7]; Homo sapiens, SK-OV-3, 24 h, read-out: cytotoxicity IC50, SKOV-3
  IC50: 0.858 ± 0.044 µM
[8]; Homo sapiens, MCF7, 24 h, read-out: cytotoxicity IC50, MCF-7
  IC50: 0.439 ± 0.026 µM
[9]; Homo sapiens, HepG2, 24 h, read-out: cytotoxicity IC50, HepG2
  IC50: 0.569 ± 0.021 µM

## O=c1[nH]c(=O)n(CCC(O)[C]23[CH]4[CH]5[CH]6[CH]2[Mn]5643)cc1F.[C-]#[O+].[C-]#[O+].[C-]#[O+] (racemic) [Compound 2]
[10]; 50% growth inhibition
  GI50: > 100 µM
[10]; concentration at which all cells were killed, determined microscopically
  MIC: >100 µM
[11]
  GI50: > 100 µM
  HL-60 MIC: >100 µM
[5]
  IC50: 100 ± 1.01 µM
[12]
  MIC, S. epidermidis ATCC 12228: >512 µg/mL
[6]
  IC50: > 150 µM
[7]
  IC50: 97.5 ± 2.87 µM
[13]
  induction of autophagy (cells containing AVOs): greatest autophagic changes
[8]
  IC50: 119 ± 2.97 µM
[9]
  IC50: > 150 µM
[14]
  increase of apoptotic cells compared to untreated control cells: 11 fold
[14]; SKOV-3, IC50 concentrations
  apoptotic cell fraction predominantly increased: late-apoptotic cell fraction
[15]
  MIC, E. coli ATCC BAA-198: >512 µg/mL
[16]
  MIC, S. aureus ATCC 700787 (VISA): >512 µg/mL
[17]
  MIC, S. aureus ATCC 29213 (MSSA): >512 µg/mL
[18]
  MIC, S. aureus ATCC 43300 (MRSA): >512 µg/mL

## Nc1ncnc2c1ncn2CCC(O)[C]12[CH]3[CH]4[CH]5[CH]1[Mn]4532.[C-]#[O+].[C-]#[O+].[C-]#[O+] (racemic) [Compound B]
[3]
  IC50: > 150 µM
[1]; HL-60 / T. brucei
  Selectivity GI50 Ratio: >3.2
[1]
  GI50: 30.8 ± 3.5 µM
  T. brucei MIC: >100 µM
[2]
  GI50: > 100 µM
[5]
  IC50: > 150 µM
[6]
  IC50: > 150 µM
[7]
  IC50: > 150 µM
[13]
  induction of autophagy (cells containing AVOs): Less induction of autophagy
[8]
  IC50: > 150 µM
[9]
  IC50: > 150 µM
[14]
  increase of apoptotic cells compared to untreated control cells: only a three-fold increase

## NCCCC(N)(C(=O)O)C(F)F (stereo not shown) [DFMO, difluoromethylornithine, reference compound]
[1]
  GI50: 23.9 µM
  T. brucei MIC: >125 µM
